One compound from patent US20240181068A1, “SELECTIVE NEUTRAL PH INHIBITOR OF CATHEPSIN B” (The Regents of the University of California, priority 2021, published 2024) can be followed below.

The structures appear in SMILES notation. A value given as a limit tells only on which side of the number the result lay.

Format in all cases: biochemical
One experiment deals with T1, cathepsin L (Homo sapiens, UniProt P07711).
T1 construct: purchased R&D Systems 952-CY-010
The experiment is described as follows: Specificity of inhibitors: cathepsin L (Z-Phe-Arg-AMC substrate). On the procedure:
Specificity of inhibitors for other cysteine cathepsin proteases. The effects of Z-Arg-Lys-AOMK and Z-Glu-Lys-AOMK on cathepsin V, L, K, S, X, H and C activities were assessed. IC50 values were calculated at pH 4.6 and pH 7.2 conditions, consisting of 40 mM citrate phosphate, 1 mM EDTA, 100 mM NaCl, and 5 mM DTT. The inhibitor concentrations ranged from 16.38 μM to 256 nM with 2-fold serial dilutions. […] Cathepsin V (0.04 ng/μL), cathepsin L (0.03 ng/μL), cathepsin K (0.10 ng/μL), cathepsin S (0.20 ng/uL) were assayed with 40 μM Z-Phe-Arg-AMC. Cathepsin X (0.20 ng/uL), cathepsin C (0.51 ng/uL) and cathepsin H (0.1 ng/μL) were assayed with 40 μM of MCA-Arg-Pro-Pro-Gly-Phe-Ser-Ala-Phe-Lys(Dnp)OH (SEQ ID NO: 2), Gly-Arg-AMC, and Arg-AMC, respectively. Activation of pro-cathepsin H to cathepsin H was conducted by incubation of cathepsin H (4.4 ng/μL) with cathepsin L (1.1 ng/μL) at RT for 2 hrs in activation buffer (20 mM citrate phosphate pH 6.0, 100 mM NaCl, and 5 mM DTT). Cathepsin C (13.78 ng/μL) was activated by incubation with cathepsin L (3.4 ng/μL) at RT for one hr in activation buffer (20 mM citrate phosphate, pH 6.0, 100 mM NaCl, 5 mM DTT). […] For all assays containing peptide-AMC substrates the fluorescent microplate reader settings were the same as outlined above for cathepsin B. For the cathepsin X assay, the plate reader was set to excitation 320 nm, emission 400 nm, gain 105, top optics and read height 1 mm. To convert RFU/s to picomol/min, 10 μM to 0.005 μM (2-fold serial dilution) of MCA-Arg-Pro-Pro-Gly-Phe-Ser-Ala-Phe-Lys(Dnp)OH (SEQ ID NO: 2) was fully hydrolyzed with excess cathepsin X and a standard curve was generated using the total fluorescence values calculated at each concentration.

The target of experiment [1] is T2, cathepsin B (Homo sapiens, UniProt P07858).
T2 construct: purchased R&D Systems 953-CY-010
As to the kind of experiment: Irreversible mechanism of inhibitors (pre-incubation, dilution, activity). Particulars: pH 7.2. On the procedure: Irreversible mechanism of inhibitors. The irreversible or reversible mechanism of cathepsin B inhibition was assessed for Z-Arg-Lys-AOMK and Z-Glu-Lys-AOMK inhibitors. At pH 7.2, cathepsin B was incubated with 190 nM Z-Arg-Lys-AOMK and 4.99 μM Z-Glu-Lys-AOMK for 15 min in pH 7.2 assay buffer and the assay was performed as described above for pH 4.6. Proteolytic activity was monitored for 2 hr. At pH 4.6, cathepsin B (activated, 3.7 ng/μL) was incubated with 4.24 μM Z-Arg-Lys-AOMK and 3.48 μM Z-Glu-Lys-AOMK for 15 min in 40 mM citrate phosphate pH 4.6, 1 mM EDTA, 100 mM NaCl, and 5 mM DTT; a vehicle control contained 2.5% DMSO. Each reaction was then diluted 100-fold in assay buffer such that the final assay composition was 0.04 ng/μL cathepsin B, 40 μM Z-Phe-Arg-AMC, and an inhibitor concentration of 1/10th the IC50 value.

The target of experiment [2] is T2, cathepsin B. The experiment is described as follows: Cathepsin B inhibitor kinetic characterization, fluorogenic assay with Z-Phe-Arg-AMC. Particulars: for reduction of cathepsin B activity: 64 nM inhibitor; for kinact/KI / Ki / IC50: cathepsin B. On the procedure:
Inhibitor kinetic characterization using fluorogenic assays for cathepsin B activity. Kinetic analyses of IC50, K1, kobs, and kinact/K1 values for Z-Arg-Lys-AOMK and Z-Glu-Lys-AOMK inhibition of cathepsin B were conducted by fluorogenic proteolytic assays consisting of 40 μM Z-Phe-Arg-AMC, 40 mM citrate phosphate at pH 7.2 or pH 4.6, 1 mM EDTA, 100 mM NaCl, 5 mM DTT, and 0.01% Tween 20; assays were performed at room temperature (22-27° C.) in quadruplicate. Inhibitor and substrate were combined in the reaction well, and the assay was started upon addition of cathepsin B (0.04 ng/μL). The inhibitor concentration ranged from 5.5 μM to 1.1 nM (1.5-fold serial dilution). A vehicle control assay contained 2% DMSO instead of inhibitor. Enzyme velocity (RFU/sec) was measured during a […] incubation period as relative fluorescent units per sec (RFU/s), calculated using the highest slope recorded for 10 consecutive readings taken at 46 sec intervals (thus, activity is calculated over a total of 460 sec). Prism software was used to analyze enzyme activity data in kinetic studies. IC50 values were calculated (without preincubation of inhibitor and enzyme) as the concentration of inhibitor that reduced cathepsin B activity by 50%.
For determination of K1 and kinact/K1 kinetic inhibition constants, kobs constants were determined by plots of cathepsin B activity in time courses with different inhibitor concentrations by curve fitting slope data of RFU versus time into Y=Y0*e^(−kobs*^X), where Y0 is the activity for the control with no inhibitor condition, Y is the activity in the presence of inhibitor, X is time. K1 and kinact values were calculated from curve fitting the kobs values into the equation kobs=kinact*[I]/(K1+[I]), where [I] is inhibitor concentration, and K1 is the x-axis inhibitor concentration where y=kinact/2 and kinact is the maximum rate of inactivation at saturating inhibitor concentrations (93, 94). These kinetic analyses are for irreversible inhibitors, Z-Arg-Lys-AOMK and Z-Glu-Lys-AOMK of this study, that utilize Ki values, rather than Ki values used for reversible inhibitors (93).

T1 sequence (P07711 114-333): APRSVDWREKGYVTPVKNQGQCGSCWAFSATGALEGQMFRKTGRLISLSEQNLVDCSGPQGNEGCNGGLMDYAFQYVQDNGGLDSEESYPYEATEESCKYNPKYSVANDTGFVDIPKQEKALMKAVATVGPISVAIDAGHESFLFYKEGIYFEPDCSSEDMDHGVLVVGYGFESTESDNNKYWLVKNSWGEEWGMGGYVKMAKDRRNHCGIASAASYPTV

In the case of `Cc1cccc(C)c1C(=O)OCC(=O)C(CCCCN)NC(=O)C(CCCNC(=N)N)NC(=O)OCc1ccccc1` (stereo not drawn) [Z-Arg-Lys-AOMK], the half-maximal inhibitory concentration (IC50) was greater than 16000 nM at cathepsin L (cathepsin L, pH 4.6); 1500 nM on cathepsin B [2] (pH 4.6, without preincubation); 22 nM against cathepsin B [2] (pH 6.8 (data not shown)); 20 nM at cathepsin B [2] (pH 7.2, without preincubation). On cathepsin L (cathepsin L, pH 4.6, 16,000 nM inhibitor), the inhibition at 16 µM amounted to 32%. The “inhibition of cathepsin L” value at cathepsin L (pH 4.6, inhibitor at 16 μM) is given as “minimal inhibition”. Besides, the “cathepsin B activity after pre-incubation and dilution of inhibitor” value on cathepsin B [1] was “no cathepsin B activity”. Also, the “reduction of cathepsin B activity” value is listed as 5% on cathepsin B [2] (pH 4.6, Z-Phe-Arg-AMC substrate) and 93% at cathepsin B [2] (pH 7.2, Z-Phe-Arg-AMC substrate). The kinact/KI was determined as 1800 M⁻¹ s⁻¹ on cathepsin B [2] (pH 4.6) and 110000 M⁻¹ s⁻¹ on cathepsin B [2] (pH 7.2). In addition, the Ki was determined as 15000 nM on cathepsin B [2] (pH 4.6, irreversible inhibitor) and 130 nM on cathepsin B [2] (pH 7.2, irreversible inhibitor).

One may read the IC50 as the concentration that gives 50% inhibition. Read a high IC50 as a need for much substance. As a reminder, the inhibition is the percentage by which the read-out fell short of the control. A low value points to a response near the control. The term kinact/KI denotes the second-order rate constant of inactivation.
